In series [1] the test system is Rattus norvegicus. Description: Antiallodynic activity in rat spinal nerve ligation model of neuropathic pain assessed as reversal of allodynia at 10 mg/kg, po after 4 hrs. Type of series: functional.
Series [2] has as its system Rattus norvegicus. Description: Antiallodynic activity in rat spinal nerve ligation model of neuropathic pain assessed as reversal of allodynia at 10 mg/kg, po after 2 hrs. Type of series: functional.
Series [3] addresses T1, Sodium channel protein type 9 subunit alpha (Homo sapiens, UniProt Q15858). Put plainly: Inhibition of human Nav1.7 by VIPR assay.
Target sequence in this assay (Q15858 whole entry): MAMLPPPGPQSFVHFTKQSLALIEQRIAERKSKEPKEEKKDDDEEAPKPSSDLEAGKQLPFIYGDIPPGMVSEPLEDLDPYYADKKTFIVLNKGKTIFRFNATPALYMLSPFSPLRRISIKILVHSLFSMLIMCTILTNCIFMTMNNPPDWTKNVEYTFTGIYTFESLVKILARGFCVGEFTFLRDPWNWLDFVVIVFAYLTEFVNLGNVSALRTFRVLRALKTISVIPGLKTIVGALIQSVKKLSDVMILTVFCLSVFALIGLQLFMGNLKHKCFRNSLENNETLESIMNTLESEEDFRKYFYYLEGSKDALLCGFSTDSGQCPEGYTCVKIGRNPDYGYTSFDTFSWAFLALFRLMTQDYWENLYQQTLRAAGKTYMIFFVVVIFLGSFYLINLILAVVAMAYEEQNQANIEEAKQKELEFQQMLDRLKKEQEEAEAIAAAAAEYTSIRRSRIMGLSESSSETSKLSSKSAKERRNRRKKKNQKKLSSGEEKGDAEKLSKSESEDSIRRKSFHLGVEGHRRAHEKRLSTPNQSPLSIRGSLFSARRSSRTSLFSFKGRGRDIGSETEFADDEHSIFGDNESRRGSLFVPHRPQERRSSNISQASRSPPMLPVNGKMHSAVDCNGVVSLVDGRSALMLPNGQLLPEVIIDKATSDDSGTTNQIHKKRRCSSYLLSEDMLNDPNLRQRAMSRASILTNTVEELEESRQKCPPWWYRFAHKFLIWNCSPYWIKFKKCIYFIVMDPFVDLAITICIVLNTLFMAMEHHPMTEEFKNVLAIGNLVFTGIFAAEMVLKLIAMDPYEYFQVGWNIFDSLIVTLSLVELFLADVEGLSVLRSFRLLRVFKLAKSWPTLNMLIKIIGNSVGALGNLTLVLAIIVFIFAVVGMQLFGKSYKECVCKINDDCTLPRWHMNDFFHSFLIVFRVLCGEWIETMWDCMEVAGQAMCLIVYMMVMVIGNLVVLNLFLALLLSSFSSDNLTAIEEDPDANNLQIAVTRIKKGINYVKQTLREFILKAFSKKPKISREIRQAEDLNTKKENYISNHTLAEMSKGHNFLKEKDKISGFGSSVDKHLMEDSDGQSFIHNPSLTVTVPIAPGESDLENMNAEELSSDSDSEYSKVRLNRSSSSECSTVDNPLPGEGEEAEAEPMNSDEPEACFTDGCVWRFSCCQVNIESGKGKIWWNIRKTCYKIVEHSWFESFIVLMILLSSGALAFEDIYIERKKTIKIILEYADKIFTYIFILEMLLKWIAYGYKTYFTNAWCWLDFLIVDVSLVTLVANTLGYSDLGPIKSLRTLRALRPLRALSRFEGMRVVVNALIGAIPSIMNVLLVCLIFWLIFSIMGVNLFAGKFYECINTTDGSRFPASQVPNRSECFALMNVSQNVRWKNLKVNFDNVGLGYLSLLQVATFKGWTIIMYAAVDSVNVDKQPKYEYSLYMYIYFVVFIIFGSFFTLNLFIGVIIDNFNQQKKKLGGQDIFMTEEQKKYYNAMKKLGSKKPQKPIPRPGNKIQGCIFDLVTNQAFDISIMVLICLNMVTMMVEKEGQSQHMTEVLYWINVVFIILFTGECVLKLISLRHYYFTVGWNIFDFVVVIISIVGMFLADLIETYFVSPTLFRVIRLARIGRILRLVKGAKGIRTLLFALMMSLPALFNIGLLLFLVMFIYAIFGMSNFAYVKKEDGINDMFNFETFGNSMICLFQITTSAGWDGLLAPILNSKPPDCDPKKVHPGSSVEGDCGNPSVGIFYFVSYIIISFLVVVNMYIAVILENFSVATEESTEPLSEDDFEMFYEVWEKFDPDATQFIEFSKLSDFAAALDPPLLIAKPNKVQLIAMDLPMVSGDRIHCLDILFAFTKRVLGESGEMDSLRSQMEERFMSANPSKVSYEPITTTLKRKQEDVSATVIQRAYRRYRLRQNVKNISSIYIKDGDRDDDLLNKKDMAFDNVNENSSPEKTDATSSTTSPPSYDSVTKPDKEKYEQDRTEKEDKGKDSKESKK
Series [4] addresses Sodium channel protein type 10 subunit alpha (Homo sapiens, UniProt Q9Y5Y9). Put plainly: Inhibition of human Nav1.8 by VIPR assay.
Series [5] deals with hERG (KCNH2) (Homo sapiens, UniProt Q12809). Put plainly: Inhibition of MK-0499 binding to human ERG at 10 uM. Conditions: probe MK-0499.
Series [6] concerns the target T1, Sodium channel protein type 9 subunit alpha. Put plainly: Inhibition of human Nav1.7 at 10 uM by VIPR assay.
Target sequence in this assay (Q15858 whole entry, looked up): as the sequence (Q15858 whole entry) above

SMILES strings stand for the structures.

Chain of hERG (KCNH2) (Q12809 whole entry): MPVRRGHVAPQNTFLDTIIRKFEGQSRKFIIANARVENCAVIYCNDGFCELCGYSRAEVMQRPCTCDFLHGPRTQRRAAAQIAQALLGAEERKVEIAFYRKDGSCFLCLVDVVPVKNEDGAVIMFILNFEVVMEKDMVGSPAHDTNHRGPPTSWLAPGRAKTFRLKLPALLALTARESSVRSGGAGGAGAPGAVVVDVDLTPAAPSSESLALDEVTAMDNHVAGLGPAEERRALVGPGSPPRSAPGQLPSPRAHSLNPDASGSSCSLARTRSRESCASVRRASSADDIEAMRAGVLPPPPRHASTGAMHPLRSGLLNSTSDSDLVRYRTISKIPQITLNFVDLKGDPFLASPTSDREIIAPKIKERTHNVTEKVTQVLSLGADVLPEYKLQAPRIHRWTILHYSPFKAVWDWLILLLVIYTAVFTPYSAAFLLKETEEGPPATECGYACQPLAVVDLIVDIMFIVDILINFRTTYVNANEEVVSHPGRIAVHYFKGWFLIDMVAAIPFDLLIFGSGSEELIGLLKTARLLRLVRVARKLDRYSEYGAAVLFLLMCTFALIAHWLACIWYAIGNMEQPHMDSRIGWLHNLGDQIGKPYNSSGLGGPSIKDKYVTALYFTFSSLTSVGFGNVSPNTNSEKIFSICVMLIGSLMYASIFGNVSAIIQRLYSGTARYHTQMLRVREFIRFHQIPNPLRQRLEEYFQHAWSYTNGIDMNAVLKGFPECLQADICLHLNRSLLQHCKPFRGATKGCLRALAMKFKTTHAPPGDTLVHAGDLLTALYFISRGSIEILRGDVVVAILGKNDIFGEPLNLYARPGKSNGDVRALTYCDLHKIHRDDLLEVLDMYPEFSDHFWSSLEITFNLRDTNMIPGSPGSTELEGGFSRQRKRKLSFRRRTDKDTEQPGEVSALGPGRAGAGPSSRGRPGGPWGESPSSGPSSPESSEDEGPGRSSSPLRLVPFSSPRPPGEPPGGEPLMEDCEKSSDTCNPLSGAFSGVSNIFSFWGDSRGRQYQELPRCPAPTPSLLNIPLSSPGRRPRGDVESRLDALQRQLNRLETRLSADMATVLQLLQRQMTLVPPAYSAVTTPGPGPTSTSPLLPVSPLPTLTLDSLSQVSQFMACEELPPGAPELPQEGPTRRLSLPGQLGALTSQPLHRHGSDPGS
Chain of Sodium channel protein type 10 subunit alpha (Q9Y5Y9 whole entry): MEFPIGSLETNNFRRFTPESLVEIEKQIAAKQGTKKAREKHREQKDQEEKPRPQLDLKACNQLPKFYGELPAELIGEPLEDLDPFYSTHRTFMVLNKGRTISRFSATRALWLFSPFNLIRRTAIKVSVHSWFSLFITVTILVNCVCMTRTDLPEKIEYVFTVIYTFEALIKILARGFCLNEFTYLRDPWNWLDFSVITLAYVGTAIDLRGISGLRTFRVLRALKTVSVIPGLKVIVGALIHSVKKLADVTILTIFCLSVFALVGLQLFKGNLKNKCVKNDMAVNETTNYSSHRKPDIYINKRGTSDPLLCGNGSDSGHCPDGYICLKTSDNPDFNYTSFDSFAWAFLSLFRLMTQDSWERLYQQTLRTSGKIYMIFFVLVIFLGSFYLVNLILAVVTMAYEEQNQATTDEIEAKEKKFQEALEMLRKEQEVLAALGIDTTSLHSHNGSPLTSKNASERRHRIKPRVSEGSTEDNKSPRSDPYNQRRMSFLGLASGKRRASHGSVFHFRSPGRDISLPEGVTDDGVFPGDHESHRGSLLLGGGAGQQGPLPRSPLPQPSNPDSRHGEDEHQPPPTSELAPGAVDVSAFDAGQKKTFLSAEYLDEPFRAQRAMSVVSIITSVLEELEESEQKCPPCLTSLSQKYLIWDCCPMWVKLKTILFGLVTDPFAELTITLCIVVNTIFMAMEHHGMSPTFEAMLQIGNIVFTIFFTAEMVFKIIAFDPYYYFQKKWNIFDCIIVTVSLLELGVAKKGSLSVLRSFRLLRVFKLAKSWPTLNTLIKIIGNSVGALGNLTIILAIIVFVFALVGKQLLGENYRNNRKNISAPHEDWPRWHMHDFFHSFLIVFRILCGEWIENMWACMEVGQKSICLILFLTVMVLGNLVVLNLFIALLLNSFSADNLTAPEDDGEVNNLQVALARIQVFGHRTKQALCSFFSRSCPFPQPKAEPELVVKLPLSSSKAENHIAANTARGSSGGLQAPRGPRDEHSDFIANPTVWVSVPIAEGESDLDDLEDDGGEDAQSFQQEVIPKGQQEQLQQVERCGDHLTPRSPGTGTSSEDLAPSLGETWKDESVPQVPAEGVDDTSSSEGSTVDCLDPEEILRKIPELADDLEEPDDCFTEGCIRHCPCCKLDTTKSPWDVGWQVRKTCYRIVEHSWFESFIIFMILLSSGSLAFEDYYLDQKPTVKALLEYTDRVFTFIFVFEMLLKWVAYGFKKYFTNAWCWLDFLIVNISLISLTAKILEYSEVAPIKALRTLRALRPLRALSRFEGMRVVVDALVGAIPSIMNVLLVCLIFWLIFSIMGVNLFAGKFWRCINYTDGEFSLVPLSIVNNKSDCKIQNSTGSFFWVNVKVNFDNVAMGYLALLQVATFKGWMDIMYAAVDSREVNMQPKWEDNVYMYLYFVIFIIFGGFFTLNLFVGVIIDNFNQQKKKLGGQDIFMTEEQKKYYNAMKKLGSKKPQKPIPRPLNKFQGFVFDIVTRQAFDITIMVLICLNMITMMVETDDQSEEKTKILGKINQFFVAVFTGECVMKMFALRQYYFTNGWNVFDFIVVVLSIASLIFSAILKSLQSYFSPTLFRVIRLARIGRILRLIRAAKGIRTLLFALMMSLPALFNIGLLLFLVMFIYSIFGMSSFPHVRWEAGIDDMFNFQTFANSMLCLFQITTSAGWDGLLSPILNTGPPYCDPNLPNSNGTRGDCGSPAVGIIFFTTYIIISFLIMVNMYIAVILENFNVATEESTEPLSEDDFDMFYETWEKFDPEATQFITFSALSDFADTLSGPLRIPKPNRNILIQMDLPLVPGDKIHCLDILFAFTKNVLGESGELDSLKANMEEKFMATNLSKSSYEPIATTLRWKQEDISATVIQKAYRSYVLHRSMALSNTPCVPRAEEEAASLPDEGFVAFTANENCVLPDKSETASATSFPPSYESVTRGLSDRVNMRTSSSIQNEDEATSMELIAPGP

As for `NC(=O)c1cc(C(N)=O)n(-c2cccc(-c3cccc(Cl)c3Cl)c2)n1`, the figures for the Activity in series [1] and in series [2] were 7% and 15%, respectively. Moreover, the half-inhibitory concentration (IC50) (in general, the midpoint of a concentration-inhibition curve) in series [3] was found to be 195 nM.
Turning to `Cc1cc(C(N)=O)nn1-c1cccc(-c2ccc(C(F)(F)F)cc2C(F)(F)F)c1`, the Ki – broadly, a measure of affinity in units of concentration, obtained from inhibition or displacement – in series [3] worked out at 340 nM.
Take `NC(=O)c1cc(C(N)=O)n(-c2cccc(-c3ccc(F)cc3OCC(F)(F)C(F)(F)F)c2)n1`: the values for the Activity in series [1] and in series [2] were 8% and 28%, respectively. The compound also showed an IC50 in series [3] of 106 nM.
The compound `NC(=O)c1nc(-c2cccc(-c3ccccc3OC(F)(F)F)c2)cs1` had a Ki in series [3] of 230 nM.
With `NC(=O)c1cc(C(N)=O)n(-c2cccc(-c3cccc(OC(F)(F)F)c3OCC(F)(F)C(F)(F)F)c2)n1`, the IC50 was 203 nM in series [4] and 64 nM in series [3]. Further, the Activity in series [1] was found to be 3%; in series [2] it was 6%.
For `CCNC(=O)c1cc(C(N)=O)nn1-c1cccc(-c2ccccc2OC(F)(F)F)c1`, 10 µM produced 20% inhibition in series [5]. For the same compound, in series [3], the IC50 is 29 nM.
Turning to `NC(=O)c1cc(C(N)=O)n(-c2cccc(-c3cc(F)ccc3OCC(F)(F)C(F)(F)F)c2)n1`, the IC50 in series [4] was 149 nM; in series [3], 46 nM. The Activity in series [1] stood at 9%; in series [2] it was 25%.
In the same order, the values of `NC(=O)c1cc(C(N)=O)n(-c2cccc(-c3cc(C(F)(F)F)ccc3OC(F)(F)F)c2)n1` are 1180 nM, 325 nM, 6% and 29%.
In turn, `NC(=O)c1cc(C(N)=O)n(-c2ccc(F)c(-c3ccccc3OC(F)(F)F)c2)n1` returned an IC50 in series [3] of 477 nM.
Same read-out and setting: next, `NC(=O)c1cc(C(N)=O)n(-c2cccc(-c3c(C(F)(F)F)cccc3C(F)(F)F)c2)n1`: 715 nM.
Regarding `NC(=O)c1nn(-c2cccc(-c3ccccc3OC(F)(F)F)c2)c(C(N)=O)c1C(N)=O`, in series [5], the inhibition (usually the share of the control response that was lost under treatment) at 10 µM was 49%. The compound also came in with an IC50 in series [3] of 115 nM.
On to `Cc1c(C(N)=O)c(C(N)=O)nn1-c1cccc(-c2ccccc2OC(F)(F)F)c1`, for which the values for the Activity in series [1] and in series [2] were 8% and 16%, respectively. Moreover, the inhibition at 10 µM in series [5] worked out at 15%. Further, the IC50 in series [3] was found to be 185 nM.
Consider `NC(=O)c1cc(C(N)=O)n(-c2cccc(-c3c(F)cccc3OC(F)(F)F)c2)n1`, for which the IC50 amounted to 802 nM in series [4] and 106 nM in series [3]. For the same compound, the Activity came out at 9% in series [1] and 15% in series [2].
Regarding `CCOC(=O)c1cc(C(N)=O)nn1-c1cccc(-c2ccccc2OC(F)(F)F)c1`, in series [5], testing at 10 µM gave an inhibition of 72%. The compound further yielded an IC50 in series [3] of 10 nM.
Turning to `Cc1cc(C(N)=O)nn1-c1cccc(-c2ccccc2OC(F)(F)F)c1`, the Activity in series [1] is on record as 11%; in series [2], 33%. In series [5], this compound came in with an inhibition at 10 µM of 69%.
On to `NC(=O)c1cn(-c2cccc(-c3ccccc3OC(F)(F)F)c2)nc1C(N)=O`, for which the Activity in series [1] is recorded as 8%; in series [2] it was 18%. For the same compound, testing at 10 µM in series [5] gave an inhibition of 1%. The compound further showed an IC50 in series [3] of 49 nM.
For the compound `NC(=O)c1cc(C(N)=O)n(-c2cccc(-c3ccccc3OC(F)(F)F)c2)n1`, the results for the IC50 in series [4] and in series [3] were 554 nM and 132 nM, respectively. Further, the Activity was determined as 19% in series [1] and 35% in series [2]. Also, testing at 10 µM in series [5] gave an inhibition of 21%.
Consider `NC(=O)c1cc(C(N)=O)n(-c2cccc(-c3ccccc3C(F)(F)F)c2)n1`, for which the figures for the concentration for half-maximal inhibition (IC50) in series [4] and in series [3] were 915 nM and 155 nM, respectively. Also, the figures for the Activity in series [1] and in series [2] were 2% and 9%, respectively.
`NC(=O)c1cc(C(N)=O)n(-c2cccc(-c3cccc(OC(F)(F)F)c3F)c2)n1`: the IC50 in series [4] was 1510 nM; in series [3], 282 nM. In addition, the values for the Activity in series [1] and in series [2] were 8% and 28%, respectively.
Take `NC(=O)c1cc(C(N)=O)n(-c2cccc(-c3cccc(C(F)(F)F)c3OCC(F)(F)C(F)(F)F)c2)n1`: the concentration for half-maximal inhibition (IC50) in series [4] came to 299 nM; in series [3], 147 nM. Also, the Activity in series [1] stood at 8%; in series [2] it was 22%.
Turning to `CCNC(=O)c1cc(C(=O)NCC)n(-c2cccc(-c3ccccc3OC(F)(F)F)c2)n1`, in series [6], the inhibition worked out at 1%. This compound also displayed an inhibition at 10 µM in series [5] of 27%.
